Source: PubChem BioAssay (NCI)
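Exposure lasted 48 hours, with cells grown in 96-well plates and compounds tested at five concentrations. Definition used: TGI = concentration required for complete inhibition of growth.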

Test system: U251 CNS
Test: growth of human tumour cells (NCI), 48 h

| SMILES | TGI [µM] |
| --- | --- |
| CN(CCCCCl)P(=O)(OCC1=CC(=O)c2ccccc2C1=O)OC[C@H]1O[C@@H](n2cc(F)c(=O)[nH]c2=O)C[C@@H]1O (some centres not stated) | 18.4 |

Test system: RPMI-8226 leukemia
Test: growth of human tumour cells (NCI), 48 h

| SMILES | TGI [µM] |
| --- | --- |
| Cc1ccc(S(=O)(=O)NC(=O)NC(C(=O)O)C(C)C)cc1 (configuration not stated) | > 100 |
| Cc1nn(C(=O)c2ccccc2O)c2c1C(c1ccc3ccccc3c1O)SC(N)=N2 (configuration not stated) | > 10 |
| COc1cc(OC)c2c(c1-c1ccc(C)cc1)CC(C)N(Cc1ccccc1)[C@H]2C (some centres not stated) | 52.3 |
| Cc1ccc(-n2c(=O)c3nn4c(=O)n(-c5ccc(C)cc5)c(=O)c4nn3c2=O)cc1 | > 100 |
| CN(CCCCCl)P(=O)(OCC1=CC(=O)c2ccccc2C1=O)OC[C@H]1O[C@@H](n2cc(F)c(=O)[nH]c2=O)C[C@@H]1O (some centres not stated) | 21.8 |

Test system: MDA-MB-435
Test: growth of human tumour cells (NCI), 48 h

| SMILES | TGI [µM] |
| --- | --- |
| Cc1nn(C(=O)c2ccccc2O)c2c1C(c1ccc3ccccc3c1O)SC(N)=N2 (configuration not stated) | > 10 |
| COc1cc(OC)c2c(c1-c1ccc(C)cc1)CC(C)N(Cc1ccccc1)[C@H]2C (some centres not stated) | > 100 |
| Cc1ccc(-n2c(=O)c3nn4c(=O)n(-c5ccc(C)cc5)c(=O)c4nn3c2=O)cc1 | > 100 |
| CN(CCCCCl)P(=O)(OCC1=CC(=O)c2ccccc2C1=O)OC[C@H]1O[C@@H](n2cc(F)c(=O)[nH]c2=O)C[C@@H]1O (some centres not stated) | 2.21 |

Test system: MCF7 breast
Test: growth of human tumour cells (NCI), 48 h

| SMILES | TGI [µM] |
| --- | --- |
| Cc1ccc(S(=O)(=O)NC(=O)NC(C(=O)O)C(C)C)cc1 (configuration not stated) | > 100 |
| Cc1nn(C(=O)c2ccccc2O)c2c1C(c1ccc3ccccc3c1O)SC(N)=N2 (configuration not stated) | 7.32 |
| COc1cc(OC)c2c(c1-c1ccc(C)cc1)CC(C)N(Cc1ccccc1)[C@H]2C (some centres not stated) | > 100 |
| Cc1ccc(-n2c(=O)c3nn4c(=O)n(-c5ccc(C)cc5)c(=O)c4nn3c2=O)cc1 | > 100 |
| CN(CCCCCl)P(=O)(OCC1=CC(=O)c2ccccc2C1=O)OC[C@H]1O[C@@H](n2cc(F)c(=O)[nH]c2=O)C[C@@H]1O (some centres not stated) | 8.68 |

Test system: HOP-92 NSCLC
Test: growth of human tumour cells (NCI), 48 h

| SMILES | TGI [µM] |
| --- | --- |
| Cc1ccc(S(=O)(=O)NC(=O)NC(C(=O)O)C(C)C)cc1 (configuration not stated) | > 100 |
| Cc1nn(C(=O)c2ccccc2O)c2c1C(c1ccc3ccccc3c1O)SC(N)=N2 (configuration not stated) | 4.03 |
| Cc1ccc(-n2c(=O)c3nn4c(=O)n(-c5ccc(C)cc5)c(=O)c4nn3c2=O)cc1 | > 100 |

Test system: K-562 leukemia
Test: growth of human tumour cells (NCI), 48 h

| SMILES | TGI [µM] |
| --- | --- |
| Cc1ccc(S(=O)(=O)NC(=O)NC(C(=O)O)C(C)C)cc1 (configuration not stated) | > 100 |
| Cc1nn(C(=O)c2ccccc2O)c2c1C(c1ccc3ccccc3c1O)SC(N)=N2 (configuration not stated) | > 10 |
| COc1cc(OC)c2c(c1-c1ccc(C)cc1)CC(C)N(Cc1ccccc1)[C@H]2C (some centres not stated) | > 100 |
| Cc1ccc(-n2c(=O)c3nn4c(=O)n(-c5ccc(C)cc5)c(=O)c4nn3c2=O)cc1 | > 100 |
| CN(CCCCCl)P(=O)(OCC1=CC(=O)c2ccccc2C1=O)OC[C@H]1O[C@@H](n2cc(F)c(=O)[nH]c2=O)C[C@@H]1O (some centres not stated) | 40.9 |

Test system: MOLT-4 leukemia
Test: growth of human tumour cells (NCI), 48 h

| SMILES | TGI [µM] |
| --- | --- |
| Cc1ccc(S(=O)(=O)NC(=O)NC(C(=O)O)C(C)C)cc1 (configuration not stated) | > 100 |
| Cc1nn(C(=O)c2ccccc2O)c2c1C(c1ccc3ccccc3c1O)SC(N)=N2 (configuration not stated) | > 10 |
| COc1cc(OC)c2c(c1-c1ccc(C)cc1)CC(C)N(Cc1ccccc1)[C@H]2C (some centres not stated) | > 100 |
| Cc1ccc(-n2c(=O)c3nn4c(=O)n(-c5ccc(C)cc5)c(=O)c4nn3c2=O)cc1 | > 100 |
| CN(CCCCCl)P(=O)(OCC1=CC(=O)c2ccccc2C1=O)OC[C@H]1O[C@@H](n2cc(F)c(=O)[nH]c2=O)C[C@@H]1O (some centres not stated) | 32.2 |

Test system: NCI-H522 lung
Test: growth of human tumour cells (NCI), 48 h

| SMILES | TGI [µM] |
| --- | --- |
| Cc1ccc(S(=O)(=O)NC(=O)NC(C(=O)O)C(C)C)cc1 (configuration not stated) | > 100 |
| COc1cc(OC)c2c(c1-c1ccc(C)cc1)CC(C)N(Cc1ccccc1)[C@H]2C (some centres not stated) | 72.8 |
| Cc1ccc(-n2c(=O)c3nn4c(=O)n(-c5ccc(C)cc5)c(=O)c4nn3c2=O)cc1 | > 100 |
| CN(CCCCCl)P(=O)(OCC1=CC(=O)c2ccccc2C1=O)OC[C@H]1O[C@@H](n2cc(F)c(=O)[nH]c2=O)C[C@@H]1O (some centres not stated) | 10.9 |

Test system: TK-10 renal
Test: growth of human tumour cells (NCI), 48 h

| SMILES | TGI [µM] |
| --- | --- |
| Cc1ccc(S(=O)(=O)NC(=O)NC(C(=O)O)C(C)C)cc1 (configuration not stated) | > 100 |
| Cc1nn(C(=O)c2ccccc2O)c2c1C(c1ccc3ccccc3c1O)SC(N)=N2 (configuration not stated) | > 10 |
| COc1cc(OC)c2c(c1-c1ccc(C)cc1)CC(C)N(Cc1ccccc1)[C@H]2C (some centres not stated) | > 100 |
| Cc1ccc(-n2c(=O)c3nn4c(=O)n(-c5ccc(C)cc5)c(=O)c4nn3c2=O)cc1 | > 100 |
| CN(CCCCCl)P(=O)(OCC1=CC(=O)c2ccccc2C1=O)OC[C@H]1O[C@@H](n2cc(F)c(=O)[nH]c2=O)C[C@@H]1O (some centres not stated) | 17.7 |

Test system: HOP-62 NSCLC
Test: growth of human tumour cells (NCI), 48 h

| SMILES | TGI [µM] |
| --- | --- |
| Cc1ccc(S(=O)(=O)NC(=O)NC(C(=O)O)C(C)C)cc1 (configuration not stated) | > 100 |
| Cc1nn(C(=O)c2ccccc2O)c2c1C(c1ccc3ccccc3c1O)SC(N)=N2 (configuration not stated) | > 10 |
| COc1cc(OC)c2c(c1-c1ccc(C)cc1)CC(C)N(Cc1ccccc1)[C@H]2C (some centres not stated) | > 100 |
| Cc1ccc(-n2c(=O)c3nn4c(=O)n(-c5ccc(C)cc5)c(=O)c4nn3c2=O)cc1 | > 100 |
| CN(CCCCCl)P(=O)(OCC1=CC(=O)c2ccccc2C1=O)OC[C@H]1O[C@@H](n2cc(F)c(=O)[nH]c2=O)C[C@@H]1O (some centres not stated) | 22.6 |

Test system: COLO 205 colon
Test: growth of human tumour cells (NCI), 48 h

| SMILES | TGI [µM] |
| --- | --- |
| Cc1ccc(S(=O)(=O)NC(=O)NC(C(=O)O)C(C)C)cc1 (configuration not stated) | > 100 |
| Cc1nn(C(=O)c2ccccc2O)c2c1C(c1ccc3ccccc3c1O)SC(N)=N2 (configuration not stated) | > 10 |
| COc1cc(OC)c2c(c1-c1ccc(C)cc1)CC(C)N(Cc1ccccc1)[C@H]2C (some centres not stated) | > 100 |
| Cc1ccc(-n2c(=O)c3nn4c(=O)n(-c5ccc(C)cc5)c(=O)c4nn3c2=O)cc1 | > 100 |
| CN(CCCCCl)P(=O)(OCC1=CC(=O)c2ccccc2C1=O)OC[C@H]1O[C@@H](n2cc(F)c(=O)[nH]c2=O)C[C@@H]1O (some centres not stated) | > 26 |

Test system: ACHN renal
Test: growth of human tumour cells (NCI), 48 h

| SMILES | TGI [µM] |
| --- | --- |
| Cc1ccc(S(=O)(=O)NC(=O)NC(C(=O)O)C(C)C)cc1 (configuration not stated) | > 100 |
| Cc1nn(C(=O)c2ccccc2O)c2c1C(c1ccc3ccccc3c1O)SC(N)=N2 (configuration not stated) | > 10 |
| COc1cc(OC)c2c(c1-c1ccc(C)cc1)CC(C)N(Cc1ccccc1)[C@H]2C (some centres not stated) | > 100 |
| Cc1ccc(-n2c(=O)c3nn4c(=O)n(-c5ccc(C)cc5)c(=O)c4nn3c2=O)cc1 | > 100 |
| CN(CCCCCl)P(=O)(OCC1=CC(=O)c2ccccc2C1=O)OC[C@H]1O[C@@H](n2cc(F)c(=O)[nH]c2=O)C[C@@H]1O (some centres not stated) | 14.7 |

Test system: A498 renal
Test: growth of human tumour cells (NCI), 48 h

| SMILES | TGI [µM] |
| --- | --- |
| Cc1nn(C(=O)c2ccccc2O)c2c1C(c1ccc3ccccc3c1O)SC(N)=N2 (configuration not stated) | > 10 |
| COc1cc(OC)c2c(c1-c1ccc(C)cc1)CC(C)N(Cc1ccccc1)[C@H]2C (some centres not stated) | > 100 |

Test system: SF-295 CNS
Test: growth of human tumour cells (NCI), 48 h

| SMILES | TGI [µM] |
| --- | --- |
| Cc1ccc(S(=O)(=O)NC(=O)NC(C(=O)O)C(C)C)cc1 (configuration not stated) | > 100 |
| Cc1nn(C(=O)c2ccccc2O)c2c1C(c1ccc3ccccc3c1O)SC(N)=N2 (configuration not stated) | > 10 |
| COc1cc(OC)c2c(c1-c1ccc(C)cc1)CC(C)N(Cc1ccccc1)[C@H]2C (some centres not stated) | > 100 |
| Cc1ccc(-n2c(=O)c3nn4c(=O)n(-c5ccc(C)cc5)c(=O)c4nn3c2=O)cc1 | > 100 |
| CN(CCCCCl)P(=O)(OCC1=CC(=O)c2ccccc2C1=O)OC[C@H]1O[C@@H](n2cc(F)c(=O)[nH]c2=O)C[C@@H]1O (some centres not stated) | 0.452 |

Test system: SF-268 CNS
Test: growth of human tumour cells (NCI), 48 h

| SMILES | TGI [µM] |
| --- | --- |
| Cc1ccc(S(=O)(=O)NC(=O)NC(C(=O)O)C(C)C)cc1 (configuration not stated) | > 100 |
| Cc1nn(C(=O)c2ccccc2O)c2c1C(c1ccc3ccccc3c1O)SC(N)=N2 (configuration not stated) | > 10 |
| COc1cc(OC)c2c(c1-c1ccc(C)cc1)CC(C)N(Cc1ccccc1)[C@H]2C (some centres not stated) | > 100 |
| Cc1ccc(-n2c(=O)c3nn4c(=O)n(-c5ccc(C)cc5)c(=O)c4nn3c2=O)cc1 | > 100 |
| CN(CCCCCl)P(=O)(OCC1=CC(=O)c2ccccc2C1=O)OC[C@H]1O[C@@H](n2cc(F)c(=O)[nH]c2=O)C[C@@H]1O (some centres not stated) | 12.6 |

Test system: HS 578T breast
Test: growth of human tumour cells (NCI), 48 h

| SMILES | TGI [µM] |
| --- | --- |
| Cc1ccc(S(=O)(=O)NC(=O)NC(C(=O)O)C(C)C)cc1 (configuration not stated) | > 100 |
| Cc1nn(C(=O)c2ccccc2O)c2c1C(c1ccc3ccccc3c1O)SC(N)=N2 (configuration not stated) | > 10 |
| COc1cc(OC)c2c(c1-c1ccc(C)cc1)CC(C)N(Cc1ccccc1)[C@H]2C (some centres not stated) | 67.3 |
